pIC50: −log10 of the molar value. “And” between values parts separate entries of the source, which are not always exact repeats. Equal values may be shown once.
System: 873145-292-R-J1-PDC complex spheroid viability
Test: Anticancer human tumor 873145-292-R-J1-PDC patient-derived renal clear cell carcinoma cell line growth inhibition [POLQ]
Details: for viability, T/C: stronger effect = lower value
Experimental: Multicellular complex tumor spheroid response to Polymerase (POL) inhibitors (novobiocin, ART-558, RP6685) in combination with a variety of drugs and investigational agents in selected tumor cell lines
The POL inhibitors (novobiocin, ART-558, and RP6685) were evaluated both individually and in combination with standard of care and investigational anticancer small molecules within a complex spheroid model of solid tumors. . Complex spheroids include a stromal component modeled by human endothelial cells (HUVEC) and fibroblasts modeled by human mesenchymal stem cells (MSCs). The concentration ranges selected for each drug and investigational agent were based upon clinically achievable concentrations if the clinical Cmax of the agent was known.
Compounds. The drugs and investigational agents: novobiocin (NSC847541), ART-558 (NSC835418), RP-6685 (NSC848927), peposertib (NSC802822), ceralasertib (NSC780249), elimusertib (NSC800525), camonsertib (NSC841442), AZD-1390 (NSC803789), olaparib (NSC753686), talazoparib (NSC767125), rucaparib (NSC756644), sotorasib (NSC818433), MRTX-1133 (NSC836407), SN-38 (NSC673596), topotecan (NSC609699), epotoside (NSC141540), doxorubicin (NSC123127), gemcitabine (NSC613327), 5-fluorouracil (NSC19893), paclitaxel (NSC125973), vemurafenib (NSC761431), MSA-2 (NSC828583), SN-011 (NSC837082), adavosertib (NSC754352), prexasertib (NSC758257), carboplatin (NSC241240) and oxaliplatin (NSC266046), were obtained from the National Cancer Institute (NCI) Developmental Therapeutics Program Chemical Repository (21). The FDA-approved anticancer drug set is available from the Developmental Therapeutics Program at https://dtp.cancer.gov/organization/dscb/obtaining/. […] The stock solutions were prepared in dimethyl sulfoxide (DMSO, Sigma-Aldrich, St. Louis, MO, cat. D2650), except for the platinum compounds which were prepared in saline (Quality Biological, Gaithersburg, MD, cat. 114-055-101), at 800-fold the tested concentration and stored at -70 degrees C prior to their use. All drugs and investigational agents were tested over a range starting from a high concentration at or near the clinical Cmax and decreasing in half-log increments. If the clinical Cmax for an agent had not been determined, the highest concentration tested was 10 microM, except for SN-38, which was tested at a high concentration of 1 microM.
Cell Culture. All cells were maintained in an incubator at 37 degrees C and 5% CO2 with 95% humidity. The PDC lines were cultured according to standard operating procedures established by the NCI PDMR (https://pdmr.cancer.gov). Table 3 of the manuscript, lists the cell lines along with the number of the three cell types plated to form the mct-spheroids and media for tumor cell growth. After thawing, all PDC lines, except 997537-175-T-J1-PDC and 415267-285-R-J2-PDC, were cultured in Matrigel-coated flasks prepared with a working solution of 1X Ham's F-12 nutrient mix, without supplementation (Thermo Fisher Scientific, cat. 11765054), 100 U/mL penicillin-streptomycin (Thermo Fisher Scientific, cat. 15140122), and 2.5% Matrigel (Corning Inc., Corning, NY, cat. 354248) for the first three passages. The two PDC lines 997537-175-T-J1-PDC and 415267-285-R-J2-PDC were cultured on uncoated flasks. The 857933-349-R-J2-PDC line was cultured in 6C/Colon 1B media containing advanced DMEM/F-12 (Thermo Fisher Scientific, cat. 12634028), 10 mM HEPES (Thermo Fisher Scientific, cat. 15630080), 1X GlutaMAX supplement (Thermo Fisher Scientific, cat. 35050061), 0.1 mg/mL primocin (InvivoGen, San Diego, CA, cat. ant-pm-2), 10% defined fetal bovine serum, heat inactivated (HyClone Laboratories Inc., Logan, UT, cat. SH30070.03HI), 50% L-WRN conditioned media (ATCC, cat. CRL-3276), 1.25 mM N-Acetyl-L-cysteine (Sigma-Aldrich, cat. A9165), 10 mM nicotinamide (Sigma-Aldrich, cat. N0636), 1X B-27 supplement (Thermo Fisher Scientific, cat. 17504044), 1X N-2 supplement (Thermo Fisher Scientific, cat. […]

[1] = compound alone, run of 01/08/2024
[2] = compound alone, run of 01/19/2024
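Further: spheroids exposed to compounds for 7 days before viability readout.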
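Wherever viability, T/C is given: luminescence signal used as surrogate for viable cell content; 100% = DMSO vehicle control viability.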

CNCc1ccc(-c2[nH]c3cc(F)cc4c3c2CCNC4=O)cc1
viability, T/C (compound 0.0316 µM): 108% and 93.3% and 101% | viability, T/C (compound 0.1 µM): 101% and 96% and 102% | viability, T/C (compound 0.316 µM): 102% and 103% and 97.2% | viability, T/C (compound 1 µM): 103% and 91.5% and 93.2% | viability, T/C (compound 3.16 µM): 94.7% and 95.1% and 93.3% | viability, T/C (compound 10 µM): 99.7% and 98% and 92.6% | pIC50 (curve of compound): < 5.00

COC1C(OC(N)=O)C(O)C(Oc2ccc3c(O)c(NC(=O)c4ccc(O)c(CC=C(C)C)c4)c(=O)oc3c2C)OC1(C)C (configuration not stated)
viability, T/C (compound 0.0316 µM): 93.7% [middle of 13 runs] | viability, T/C (compound 0.316 µM): 102% [middle of 13 runs] | viability, T/C (compound 1 µM): 99.8% [middle of 13 runs] | viability, T/C (compound 3.16 µM): 102% [middle of 13 runs] | viability, T/C (compound 10 µM): 98.3% [middle of 13 runs] | pIC50 [1]: < 5.00

COc1cc(C2c3cc4c(cc3C(OC3OC5COC(C)OC5C(O)C3O)C3COC(=O)C23)OCO4)cc(OC)c1O (configuration not stated)
viability, T/C (compound 0.0316 µM): 95.1% and 110% and 113% | viability, T/C (compound 0.1 µM): 94.9% and 101% and 95.3% | viability, T/C (compound 0.316 µM): 98.2% and 106% and 94.5% | viability, T/C (compound 1 µM): 95.1% and 95.9% and 102% | viability, T/C (compound 3.16 µM): 67% and 80.8% and 85.2% | viability, T/C (compound 10 µM): 56.9% and 68.2% and 66% | pIC50 (curve of compound): < 5.00

COc1cc2cc(C(=O)CCC(=O)O)sc2cc1OC
viability, T/C (compound 0.0316 µM): 112% and 99.5% and 94.5% | viability, T/C (compound 0.1 µM): 107% and 103% and 89.5% | viability, T/C (compound 0.316 µM): 96.3% and 97.8% and 104% | viability, T/C (compound 1 µM): 101% and 96.7% and 102% | viability, T/C (compound 3.16 µM): 98.9% and 105% (2×) | viability, T/C (compound 10 µM): 99.8% and 101% and 109% | pIC50 (curve of compound): < 5.00

COc1ccc([C@@H](O)c2cc(-c3ncnc4cc(N5CCOCC5)ccc34)c(F)cc2Cl)nn1
viability, T/C (compound 0.0316 µM): 70.5% and 97.3% and 103% | viability, T/C (compound 0.1 µM): 85% and 91.1% and 92.7% | viability, T/C (compound 0.316 µM): 86.9% and 84.3% and 87% | viability, T/C (compound 1 µM): 66.4% and 79.4% and 67.4% | viability, T/C (compound 3.16 µM): 56.9% and 52.8% and 57% | viability, T/C (compound 10 µM): 42.3% and 49.3% and 41.6% | pIC50 (curve of compound): 5.30 and 5.14

COc1cccc(OCCCN)c1-c1cc(Nc2cnc(C#N)cn2)n[nH]1
viability, T/C (compound 0.00316 µM): 103% and 116% and 101% | viability, T/C (compound 0.01 µM): 89.6% and 98.2% and 94.2% | viability, T/C (compound 0.0316 µM): 68.6% and 71.2% and 98.3% | viability, T/C (compound 0.1 µM): 60.8% and 74% and 71.8% | viability, T/C (compound 0.316 µM): 63.5% and 75.3% and 79.5% | viability, T/C (compound 1 µM): 72.4% and 84.5% and 73.1% | pIC50 (curve of compound): < 6.00

COc1cccc2c1C(=O)c1c(O)c3c(c(O)c1C2=O)CC(O)(C(=O)CO)CC3OC1CC(N)C(O)C(C)O1 (configuration not stated)
viability, T/C (compound 0.0316 µM): 79.5% and 101% and 88.3% | viability, T/C (compound 0.1 µM): 68.8% and 87.2% and 90.1% | viability, T/C (compound 0.316 µM): 70.1% and 92.2% and 85.7% | viability, T/C (compound 1 µM): 68.8% and 84.2% and 79.3% | viability, T/C (compound 3.16 µM): 3.4% and 5.11% and 4.22% | viability, T/C (compound 10 µM): 2.7% and 3.08% and 3.02% | pIC50 (curve of compound): 5.86 and 5.78 and 5.80

Cc1cccc(N(C)C(=O)C2C(O)CCN2c2nc(C)cc(C(F)(F)F)c2C#N)c1 (configuration not stated)
viability, T/C (compound 0.0316 µM): 93.4% [middle of 13 runs] | viability, T/C (compound 0.1 µM): 97.4% [middle of 13 runs] | viability, T/C (compound 0.316 µM): 98.9% [middle of 13 runs] | viability, T/C (compound 1 µM): 99.9% [middle of 13 runs] | viability, T/C (compound 3.16 µM): 99.1% [middle of 13 runs] | viability, T/C (compound 10 µM): 95.5% [middle of 11 runs] | pIC50 [1]: < 5.00 | pIC50 [2]: < 5.00

Cn1ncnc1[C@H]1c2n[nH]c(=O)c3cc(F)cc(c23)N[C@@H]1c1ccc(F)cc1
viability, T/C (compound 0.000316 µM): 99.5% and 108% and 99.7% | viability, T/C (compound 0.001 µM): 102% and 92.8% and 98% | viability, T/C (compound 0.00316 µM): 91.2% and 96.3% and 103% | viability, T/C (compound 0.01 µM): 107% and 97.5% and 102% | viability, T/C (compound 0.0316 µM): 108% and 102% and 94.4% | viability, T/C (compound 0.1 µM): 101% and 97.9% and 88.9% | pIC50 (curve of compound): < 7.00

Nc1ccc(C#CCN(C(=O)Cc2ncc(C(F)(F)F)cc2C(F)(F)F)c2ccc(F)cc2)nn1
viability, T/C (compound 0.1 µM): 101% [middle of 13 runs] | viability, T/C (compound 0.316 µM): 101% [middle of 13 runs] | viability, T/C (compound 1 µM): 95.2% [middle of 13 runs] | viability, T/C (compound 3.16 µM): 103% [middle of 13 runs] | viability, T/C (compound 10 µM): 108% [middle of 13 runs] | pIC50 [2]: < 5.00

Nc1ccn(C2OC(CO)C(O)C2(F)F)c(=O)n1 (configuration not stated)
viability, T/C (compound 0.0316 µM): 64.3% and 74.6% and 56.8% | viability, T/C (compound 0.1 µM): 55.4% and 57.4% and 46.8% | viability, T/C (compound 0.316 µM): 50.4% and 59.5% and 57.8% | viability, T/C (compound 1 µM): 58.3% and 53% and 55.6% | viability, T/C (compound 3.16 µM): 55.6% and 60% and 51.4% | viability, T/C (compound 10 µM): 49.7% and 56.7% and 41.6% | pIC50 (curve of compound): < 5.00 and 5.73

O=C(Nc1ccc(O)c(NS(=O)(=O)c2ccc(F)cc2)c1)c1ccc(-c2ccccc2)cc1
viability, T/C (compound 0.0316 µM): 115% and 109% and 103% | viability, T/C (compound 0.1 µM): 97.8% and 105% and 91.7% | viability, T/C (compound 0.316 µM): 113% and 107% and 99.3% | viability, T/C (compound 1 µM): 105% and 99.7% and 101% | viability, T/C (compound 3.16 µM): 105% (2×) and 108% | viability, T/C (compound 10 µM): 104% and 99.2% and 98.4% | pIC50 (curve of compound): < 5.00

O=C(c1cc(Cc2n[nH]c(=O)c3ccccc23)ccc1F)N1CCN(C(=O)C2CC2)CC1
viability, T/C (compound 0.0316 µM): 99.8% and 99.5% and 107% | viability, T/C (compound 0.1 µM): 96.2% and 91.1% and 106% | viability, T/C (compound 0.316 µM): 91.9% and 115% and 107% | viability, T/C (compound 1 µM): 104% and 97.4% (2×) | viability, T/C (compound 3.16 µM): 98.6% and 112% and 104% | viability, T/C (compound 10 µM): 91.7% and 95.1% and 102% | pIC50 (curve of compound): < 5.00

O=c1[nH]cc(F)c(=O)[nH]1
viability, T/C (compound 0.0316 µM): 90.7% and 101% and 99.7% | viability, T/C (compound 0.1 µM): 98.1% and 101% and 92.8% | viability, T/C (compound 0.316 µM): 93.2% and 92.1% and 94.4% | viability, T/C (compound 1 µM): 99.2% and 101% and 92% | viability, T/C (compound 3.16 µM): 107% and 102% and 96.4% | viability, T/C (compound 10 µM): 99.7% and 106% and 94.3% | pIC50 (curve of compound): < 5.00

Reference: PubChem BioAssay AID1963834 (Molecular Pharmacology Branch, DTP, NCI, 2024)
